Test results reported in patent publication US12121521B2, “Uses of salt-inducible kinase (SIK) inhibitors for treating osteoporosis” (The General Hospital Corporation, priority 2016, dated 2024).

What was measured:
Test in all cases: ScanEDGE kinase panel (DiscoverX)
Format in all cases: binding
Conditions in all cases: read-out: % of control activity at 71 nM
[1] = target: T1, MARK1 (Homo sapiens, UniProt Q9P0L2)
T1 construct: T7 phage fusion (most kinases) or DNA tag for qPCR (HEK-293-made kinases); purchased DiscoverX; host or cells: E. coli BL21-derived host (T7 phage) or HEK-293
Experimental: (§1) ScanEDGE kinase assays paneling specificity across a panel of 96 representative kinases were performed by DiscoverX (Fremont, CA). For most assays, kinase-tagged T7 phage strains were grown in parallel in 24-well blocks in an E. coli host derived from the BL21 strain. Bacteria were grown to log phase and infected with T7 phage from frozen stock (MOI=0.4) and incubated with shaking at 32° C. until lysis (90-150 minutes). The lysates were centrifuged (6000×g) and filtered (0.2 μm) to remove cell debris. The remaining kinases were produced in HEK-293 cells and subsequently tagged with DNA for qPCR detection. […] The liganded beads were blocked with excess biotin and washing with blocking buffer (SeaBlock (Pierce), 1% BSA, 0.05% Tween 20, 1 mM DTT) to remove unbound ligand and to reduce non-specific phage binding. […] Test compounds were prepared as 40× stocks in 100% DMSO and directly diluted into the assay. All reactions were performed in polypropylene 384 well plates in a final volume of 40 μl. […] The kinase concentration in the eluates was measured by qPCR.

[2] = target: T2, ABL1 (Homo sapiens, UniProt P00519)
T2 construct: T7 phage fusion (most kinases) or DNA tag for qPCR (HEK-293-made kinases); purchased DiscoverX (Fremont, CA); host or cells: E. coli BL21-derived host (T7 phage) or HEK-293
Experimental: as §1

[3] = target: T3, BTK (Homo sapiens, UniProt Q06187)
T3 construct: T7 phage fusion (most kinases) or DNA tag for qPCR (HEK-293-made kinases); purchased DiscoverX (Fremont, CA); host or cells: E. coli BL21-derived host (T7 phage) or HEK-293
T3 sequence (Q06187 whole entry, the tested form may be a part): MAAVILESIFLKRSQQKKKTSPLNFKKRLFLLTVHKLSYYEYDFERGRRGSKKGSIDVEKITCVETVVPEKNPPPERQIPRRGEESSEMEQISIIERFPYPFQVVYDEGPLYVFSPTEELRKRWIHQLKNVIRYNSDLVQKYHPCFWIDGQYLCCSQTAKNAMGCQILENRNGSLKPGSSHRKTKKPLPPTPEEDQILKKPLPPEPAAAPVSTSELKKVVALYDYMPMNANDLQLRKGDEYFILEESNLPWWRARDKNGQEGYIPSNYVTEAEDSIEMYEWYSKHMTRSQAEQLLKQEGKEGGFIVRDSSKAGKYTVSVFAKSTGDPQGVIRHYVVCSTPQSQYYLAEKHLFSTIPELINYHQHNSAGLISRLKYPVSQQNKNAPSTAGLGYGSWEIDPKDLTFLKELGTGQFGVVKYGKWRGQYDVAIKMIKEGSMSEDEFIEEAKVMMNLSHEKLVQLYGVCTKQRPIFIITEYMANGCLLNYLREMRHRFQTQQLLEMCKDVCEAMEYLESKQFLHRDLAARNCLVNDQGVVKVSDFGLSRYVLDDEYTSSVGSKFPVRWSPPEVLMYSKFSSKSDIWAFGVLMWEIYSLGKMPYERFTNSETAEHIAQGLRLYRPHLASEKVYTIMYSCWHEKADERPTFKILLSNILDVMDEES
Experimental: as §1

[4] = target: T4, MEK1 (Homo sapiens, UniProt Q02750)
T4 construct: T7 phage fusion (most kinases) or DNA tag for qPCR (kinases made in HEK-293); purchased DiscoverX; host or cells: E. coli BL21-derived host (T7 phage) or HEK-293
Experimental: as §1

[5] = target: T5, SIK2 (Homo sapiens, UniProt Q9H0K1)
T5 construct: T7 phage fusion (most kinases) or DNA tag after HEK-293 expression; purchased DiscoverX (Fremont, CA), ScanEDGE; host or cells: T7 phage in E. coli BL21-derived host, or HEK-293
Experimental: as §1

[6] = target: T6, MEK2 (Homo sapiens, UniProt P36507)
T6 construct: T7 phage fusion (most kinases) or DNA tag for qPCR (kinases made in HEK-293); purchased DiscoverX; host or cells: E. coli BL21-derived host (T7 phage) or HEK-293
Experimental: as §1

[7] = target: T7, PDGFRA (Homo sapiens, UniProt P16234)
T7 construct: T7 phage fusion (most kinases) or DNA tag for qPCR (kinases made in HEK-293); purchased DiscoverX; host or cells: E. coli BL21-derived host (T7 phage) or HEK-293
T7 sequence (P16234 24-1089): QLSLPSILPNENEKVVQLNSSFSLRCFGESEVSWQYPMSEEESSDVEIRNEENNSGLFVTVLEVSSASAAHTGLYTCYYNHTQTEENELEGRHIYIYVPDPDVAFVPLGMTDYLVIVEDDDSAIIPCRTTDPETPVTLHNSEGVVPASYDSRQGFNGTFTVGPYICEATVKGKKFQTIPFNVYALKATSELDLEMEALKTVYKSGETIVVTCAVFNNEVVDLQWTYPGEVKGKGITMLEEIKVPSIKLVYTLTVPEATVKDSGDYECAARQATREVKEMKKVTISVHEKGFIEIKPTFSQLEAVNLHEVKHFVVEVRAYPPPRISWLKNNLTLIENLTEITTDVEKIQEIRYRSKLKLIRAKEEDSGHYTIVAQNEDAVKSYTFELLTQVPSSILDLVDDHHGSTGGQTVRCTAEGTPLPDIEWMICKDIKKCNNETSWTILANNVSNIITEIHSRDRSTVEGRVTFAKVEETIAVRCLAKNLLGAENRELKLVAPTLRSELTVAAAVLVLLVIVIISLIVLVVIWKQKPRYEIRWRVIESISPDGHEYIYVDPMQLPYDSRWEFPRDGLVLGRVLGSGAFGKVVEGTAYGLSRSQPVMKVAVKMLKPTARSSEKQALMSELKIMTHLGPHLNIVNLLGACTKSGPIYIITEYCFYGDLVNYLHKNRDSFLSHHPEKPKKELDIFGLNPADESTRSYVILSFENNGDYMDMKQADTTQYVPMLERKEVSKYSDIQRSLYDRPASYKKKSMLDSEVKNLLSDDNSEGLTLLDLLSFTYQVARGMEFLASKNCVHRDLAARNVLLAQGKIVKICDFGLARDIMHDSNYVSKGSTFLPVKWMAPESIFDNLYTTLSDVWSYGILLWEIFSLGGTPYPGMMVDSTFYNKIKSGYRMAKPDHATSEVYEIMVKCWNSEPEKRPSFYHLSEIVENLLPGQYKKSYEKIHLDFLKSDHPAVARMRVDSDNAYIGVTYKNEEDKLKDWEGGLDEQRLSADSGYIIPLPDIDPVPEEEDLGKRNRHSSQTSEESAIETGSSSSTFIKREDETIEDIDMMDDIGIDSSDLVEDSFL
Experimental: as §1

[8] = target: T8, MLK1 (Homo sapiens, UniProt P80192)
T8 construct: T7 phage fusion (most kinases) or DNA tag for qPCR (kinases made in HEK-293); purchased DiscoverX; host or cells: E. coli BL21-derived host (T7 phage) or HEK-293
Experimental: as §1

[9] = target: T9, JAK2 (Homo sapiens, UniProt O60674)
T9 construct: T7 phage fusion (most kinases) or DNA tag for qPCR (HEK-293-made kinases); purchased DiscoverX; host or cells: E. coli BL21-derived host (T7 phage) or HEK-293
Experimental: as §1

[10] = target: T10, MAPKAPK2 (Homo sapiens, UniProt P49137)
T10 construct: T7 phage fusion (most kinases) or DNA tag for qPCR (HEK-293-made kinases); purchased DiscoverX; host or cells: E. coli BL21-derived host (T7 phage) or HEK-293
Experimental: as §1

[11] = target: T11, SNARK (Homo sapiens, UniProt Q9H093)
T11 construct: T7 phage fusion (most kinases) or DNA tag after HEK-293 expression; purchased DiscoverX (Fremont, CA), ScanEDGE; host or cells: T7 phage in E. coli BL21-derived host, or HEK-293
T11 sequence (Q9H093 whole entry, the tested form may be a part): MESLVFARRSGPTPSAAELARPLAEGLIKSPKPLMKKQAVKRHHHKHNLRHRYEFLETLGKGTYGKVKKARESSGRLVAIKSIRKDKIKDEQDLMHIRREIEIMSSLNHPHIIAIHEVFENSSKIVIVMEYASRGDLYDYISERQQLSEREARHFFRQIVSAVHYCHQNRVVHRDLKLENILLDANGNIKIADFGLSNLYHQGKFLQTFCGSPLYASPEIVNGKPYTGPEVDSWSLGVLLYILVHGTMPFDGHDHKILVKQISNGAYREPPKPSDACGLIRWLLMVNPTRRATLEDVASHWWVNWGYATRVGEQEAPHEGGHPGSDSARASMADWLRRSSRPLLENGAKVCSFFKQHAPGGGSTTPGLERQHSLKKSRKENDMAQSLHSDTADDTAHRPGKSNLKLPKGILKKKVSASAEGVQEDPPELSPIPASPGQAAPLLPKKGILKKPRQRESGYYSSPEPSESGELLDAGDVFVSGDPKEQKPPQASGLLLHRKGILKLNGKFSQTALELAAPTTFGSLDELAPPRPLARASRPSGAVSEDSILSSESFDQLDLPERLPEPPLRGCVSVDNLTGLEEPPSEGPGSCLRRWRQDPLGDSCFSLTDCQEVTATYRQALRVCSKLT
Experimental: as §1

[12] = target: T12, CDK11 (Homo sapiens, UniProt Q9BWU1)
T12 construct: T7 phage fusion (most kinases) or DNA tag for qPCR (HEK-293-made kinases); purchased DiscoverX (Fremont, CA); host or cells: E. coli BL21-derived host (T7 phage) or HEK-293
T12 sequence (Q9BWU1 whole entry, the tested form may be a part): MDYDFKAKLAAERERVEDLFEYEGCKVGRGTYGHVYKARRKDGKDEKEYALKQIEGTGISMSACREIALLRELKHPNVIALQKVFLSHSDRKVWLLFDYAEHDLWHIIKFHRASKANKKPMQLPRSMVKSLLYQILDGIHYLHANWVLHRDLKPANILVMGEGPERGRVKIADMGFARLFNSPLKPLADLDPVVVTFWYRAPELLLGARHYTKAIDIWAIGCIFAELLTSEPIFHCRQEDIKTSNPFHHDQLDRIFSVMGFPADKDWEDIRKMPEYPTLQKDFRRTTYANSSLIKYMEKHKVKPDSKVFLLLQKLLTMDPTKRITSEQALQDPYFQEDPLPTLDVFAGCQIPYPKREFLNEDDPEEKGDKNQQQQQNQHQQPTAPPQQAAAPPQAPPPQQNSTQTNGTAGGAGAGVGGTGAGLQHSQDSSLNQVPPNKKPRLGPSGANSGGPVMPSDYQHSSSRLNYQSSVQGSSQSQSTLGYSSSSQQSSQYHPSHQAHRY
Experimental: as §1

[13] = target: T13, ACVR1B (Homo sapiens, UniProt P36896)
T13 construct: T7 phage fusion (most kinases) or DNA tag for qPCR (HEK-293-made kinases); purchased DiscoverX (Fremont, CA); host or cells: E. coli BL21-derived host (T7 phage) or HEK-293
T13 sequence (P36896 24-505): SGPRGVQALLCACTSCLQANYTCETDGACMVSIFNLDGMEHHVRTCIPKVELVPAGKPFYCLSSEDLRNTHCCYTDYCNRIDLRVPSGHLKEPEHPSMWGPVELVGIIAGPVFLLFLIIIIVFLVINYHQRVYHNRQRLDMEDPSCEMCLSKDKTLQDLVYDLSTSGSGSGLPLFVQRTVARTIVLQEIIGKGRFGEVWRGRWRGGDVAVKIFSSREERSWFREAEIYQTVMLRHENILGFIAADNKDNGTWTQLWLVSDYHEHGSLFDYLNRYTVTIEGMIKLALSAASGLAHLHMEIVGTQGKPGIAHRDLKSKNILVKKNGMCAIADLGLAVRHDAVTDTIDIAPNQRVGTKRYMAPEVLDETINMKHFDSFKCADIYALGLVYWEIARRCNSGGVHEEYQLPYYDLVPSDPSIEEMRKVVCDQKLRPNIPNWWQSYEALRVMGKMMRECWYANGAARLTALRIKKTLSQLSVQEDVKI
Experimental: as §1

[14] = target: T14, RET (Homo sapiens, UniProt P07949)
T14 construct: T7 phage fusion (most kinases) or DNA tag after HEK-293 expression; purchased DiscoverX (Fremont, CA), ScanEDGE; host or cells: T7 phage in E. coli BL21-derived host, or HEK-293
T14 sequence (P07949 29-1114): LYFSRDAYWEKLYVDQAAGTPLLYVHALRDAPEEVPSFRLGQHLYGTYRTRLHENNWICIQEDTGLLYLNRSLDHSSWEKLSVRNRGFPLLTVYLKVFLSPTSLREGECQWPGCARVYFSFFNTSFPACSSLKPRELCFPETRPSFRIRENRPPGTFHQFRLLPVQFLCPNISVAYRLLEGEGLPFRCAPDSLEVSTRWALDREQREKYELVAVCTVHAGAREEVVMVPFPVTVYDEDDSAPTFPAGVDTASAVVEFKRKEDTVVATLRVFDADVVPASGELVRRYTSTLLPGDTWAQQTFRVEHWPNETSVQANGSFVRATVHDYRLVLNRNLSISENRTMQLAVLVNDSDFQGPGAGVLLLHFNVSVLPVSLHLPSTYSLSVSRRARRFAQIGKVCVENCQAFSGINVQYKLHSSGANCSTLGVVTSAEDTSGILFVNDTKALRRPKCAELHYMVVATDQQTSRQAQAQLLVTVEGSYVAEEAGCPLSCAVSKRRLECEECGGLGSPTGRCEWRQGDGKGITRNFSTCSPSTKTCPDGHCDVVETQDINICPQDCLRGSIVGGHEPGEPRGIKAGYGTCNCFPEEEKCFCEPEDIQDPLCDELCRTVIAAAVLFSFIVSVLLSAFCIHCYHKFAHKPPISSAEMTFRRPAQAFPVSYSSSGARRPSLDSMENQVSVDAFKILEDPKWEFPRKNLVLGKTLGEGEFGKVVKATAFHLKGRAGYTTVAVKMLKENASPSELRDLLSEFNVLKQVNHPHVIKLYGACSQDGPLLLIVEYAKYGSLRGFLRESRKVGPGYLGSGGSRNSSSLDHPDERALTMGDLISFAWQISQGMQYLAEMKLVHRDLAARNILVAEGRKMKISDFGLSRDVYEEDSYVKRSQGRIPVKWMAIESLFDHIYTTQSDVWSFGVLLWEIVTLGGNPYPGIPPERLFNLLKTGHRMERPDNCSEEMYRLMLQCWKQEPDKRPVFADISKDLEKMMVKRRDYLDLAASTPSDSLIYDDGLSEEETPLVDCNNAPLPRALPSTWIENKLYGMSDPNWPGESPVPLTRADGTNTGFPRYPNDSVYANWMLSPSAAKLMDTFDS
Experimental: as §1

[15] = target: T15, HCK (Homo sapiens, UniProt P08631)
T15 construct: T7 phage fusion (most kinases) or DNA tag for qPCR (HEK-293-made kinases); purchased DiscoverX; host or cells: E. coli BL21-derived host (T7 phage) or HEK-293
T15 sequence (P08631 whole entry, the tested form may be a part): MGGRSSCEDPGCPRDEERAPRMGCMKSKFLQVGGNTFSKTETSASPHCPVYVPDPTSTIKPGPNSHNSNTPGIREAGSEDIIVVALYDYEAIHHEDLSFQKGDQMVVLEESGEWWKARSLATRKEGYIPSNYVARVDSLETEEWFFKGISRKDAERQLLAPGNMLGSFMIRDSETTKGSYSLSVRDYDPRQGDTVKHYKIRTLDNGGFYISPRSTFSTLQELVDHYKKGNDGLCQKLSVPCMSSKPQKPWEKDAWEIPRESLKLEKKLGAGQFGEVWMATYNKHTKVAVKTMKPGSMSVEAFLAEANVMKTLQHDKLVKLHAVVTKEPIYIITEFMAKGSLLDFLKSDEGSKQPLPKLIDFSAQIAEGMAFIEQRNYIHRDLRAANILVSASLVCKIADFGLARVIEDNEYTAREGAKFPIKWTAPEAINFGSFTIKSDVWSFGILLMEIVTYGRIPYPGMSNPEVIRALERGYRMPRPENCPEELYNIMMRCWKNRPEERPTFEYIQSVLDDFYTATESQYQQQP
Experimental: as §1

[16] = target: T16, ULK2 (Homo sapiens, UniProt Q8IYT8)
T16 construct: T7 phage fusion (most kinases) or DNA tag after HEK-293 expression; purchased DiscoverX (Fremont, CA), ScanEDGE; host or cells: T7 phage in E. coli BL21-derived host, or HEK-293
Experimental: as §1

- remaining binding at 0.071 µM [1]: 84%
- remaining binding at 0.071 µM [2]: 0.2%
- remaining binding at 0.071 µM [3]: 0.45%
- remaining binding at 0.071 µM [4]: 20%
- remaining binding at 0.071 µM [5]: 10%
- remaining binding at 0.071 µM [6]: 12%
- remaining binding at 0.071 µM [7]: 11%
- remaining binding at 0.071 µM [8]: 12%
- remaining binding at 0.071 µM [9]: 13%
- remaining binding at 0.071 µM [10]: 85%
- remaining binding at 0.071 µM [11]: 6%
- remaining binding at 0.071 µM [12]: 88%
- remaining binding at 0.071 µM [13]: 50%
- remaining binding at 0.071 µM [14]: 3.6%
- remaining binding at 0.071 µM [15]: 1.2%
- remaining binding at 0.071 µM [16]: 31%
SMILES: COc1ccc(N2C(=O)N(c3c(C)cccc3C)Cc3cnc(Nc4ccc(C5CCN(C)CC5)c(OC)c4)nc32)c(OC)c1 [YKL-05-093]
